Values of other authors in patent US20040034086A1, “Combination of an allosteric inhibitor of matrix metalloproteinase-13 with celecoxib or valdecoxib” (priority 2002, published 2004).

Cc1onc(-c2ccccc2)c1-c1ccc(S(N)(=O)=O)cc1 [valdecoxib, 4-(5-methyl-3-phenyl-4-isoxazolyl)-benzenesulfonamide]
Tolerability in clinical studies (combined analysis of various clinical studies): well tolerated | Overall upper gastrointestinal safety profile (ulcers, perforations, obstructions and GI bleeds) (compared with conventional NSAIDs such as ibuprofen, diclofenac and naproxen): significantly better than the conventional NSAIDs studied
